Settings: from CCn1c(-c2cccnc2[C@H](C)OC)c(CC(C)(C)CO)c2cc(C3=CCCN(CC(NC(=O)OC(C)(C)C)C(=O)N4CCC[C@@H](C(=O)O)N4)C3)ccc21; ester bond; 18-membered ring; EDCI.HCl/HOBt/DIPEA; DCM; 7.1 mM; 30.0 °C; 16.0 h

CCn1c(-c2cccnc2[C@H](C)OC)c2c3cc(ccc31)C1=CCCN(C1)CC(NC(=O)OC(C)(C)C)C(=O)N1CCC[C@H](N1)C(=O)OCC(C)(C)C2 (stereo partly shown)
ring closure, isolated yield: 40%
